Measured values taken from patent US12091411B2, “IRAK degraders and uses thereof” (Kymera Therapeutics, Inc., priority 2022, dated 2024).
Where two headings read alike, the source gives them in different places.

Molecular target: T1, IRAK4 (Homo sapiens, UniProt Q9NWZ3)
T1 construct: Degradation of IRAK4 in OCI-LY10 was quantitatively measured using Meso Scale Discovery technology; endogenous in cells; host or cells: OCI-LY10
T1 sequence (Q9NWZ3 1-460): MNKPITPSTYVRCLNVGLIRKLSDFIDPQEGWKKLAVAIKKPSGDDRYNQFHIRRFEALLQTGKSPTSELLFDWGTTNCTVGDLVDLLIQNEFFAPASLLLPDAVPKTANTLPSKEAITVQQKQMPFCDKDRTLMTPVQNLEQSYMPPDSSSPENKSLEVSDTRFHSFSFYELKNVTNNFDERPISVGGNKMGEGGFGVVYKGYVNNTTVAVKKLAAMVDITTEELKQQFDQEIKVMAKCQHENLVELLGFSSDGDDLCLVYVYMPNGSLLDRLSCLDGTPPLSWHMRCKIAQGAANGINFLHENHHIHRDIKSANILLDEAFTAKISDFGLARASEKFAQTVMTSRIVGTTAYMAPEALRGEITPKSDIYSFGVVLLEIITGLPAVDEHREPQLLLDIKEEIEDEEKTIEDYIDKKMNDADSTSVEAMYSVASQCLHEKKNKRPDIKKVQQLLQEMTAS
Assay: IRAK4 MSD Degradation in OCI-LY10
Assay type: cell-based
Conditions: OCI-LY10 cells, MSD
How it was run: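 DC50, from a three-parameter logistic fit and reported as letter bins A (<0.01 μM), B, C, D (>0.2 μM or not tested), reflects IRAK4 loss measured by MSD electrochemiluminescence in OCI-LY10 lysates. Treatment: 8 doses, 1:3 steps, top 1 to 10 μM, 4 to 24 h, 37 °C.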

[1] = 4 hrs incubation, read-out: IRAK4 degradation in OCI-LY10 at 4 hrs: DC50
[2] = 24 hrs incubation, read-out: IRAK4 degradation in OCI-LY10 at 24 hrs: DC50

Row | Compound | DC50 [1] | DC50 [2]
1 | CN(C1CCN(c2cccc3c2n(C)c(=O)n3C2CCC(=O)NC2=O)CC1)[C@@H](C#N)[C@H]1CC[C@H](n2cc(NC(=O)c3cnn4cccnc34)c(C(F)F)n2)CC1 (stereo partly drawn) [I-242] | > 200 nM | > 200 nM
2 | CC(C)Oc1ccn2ncc(C(=O)Nc3cn([C@H]4CC[C@H](CN5CCN(CC#Cc6cccc7c6n(C)c(=O)n7C6CCC(=O)NC6=O)CC5)CC4)nc3C(F)F)c2n1 (stereo partly drawn) [I-243] | > 200 nM | > 200 nM
3 | Cn1c(=O)n(C2CCC(=O)NC2=O)c2cccc(C#CCN3CCN(C[C@H]4CC[C@H](n5cc(NC(=O)c6cnn7ccc(OC8CCC8)nc67)c(C(F)F)n5)CC4)CC3)c21 (stereo partly drawn) [I-244] | > 200 nM | > 200 nM
4 | Cn1c(=O)n(C2CCC(=O)NC2=O)c2cccc(C#CCN3CCN(C[C@H]4CC[C@H](n5cc(NC(=O)c6cnn7ccc(OC8CCCC8)nc67)c(C(F)F)n5)CC4)CC3)c21 (stereo partly drawn) [I-245] | > 200 nM | 10 to 100 nM
5 | Cn1c(=O)n(C2CCC(=O)NC2=O)c2cccc(C#CCN3CCN(C[C@H]4CC[C@H](n5cc(NC(=O)c6cnn7ccc(OC8CCCCC8)nc67)c(C(F)F)n5)CC4)CC3)c21 (stereo partly drawn) [I-246] | > 200 nM | > 200 nM
6 | COc1cc2nn([C@H]3CC[C@H](CN4CCC5(CC4)CCN(c4cccc6c4n(C)c(=O)n6C4CCC(=O)NC4=O)CC5)CC3)cc2cc1NC(=O)c1cc(F)cc(C#N)c1 (stereo partly drawn) [I-247] | > 200 nM | < 10 nM
7 | O=C1CCC(c2cccc3c(C#CCOC4CCN(C[C@H]5CC[C@H](n6cc(NC(=O)c7cnn8ccc(N9C[C@H]%10C[C@@H]9CO%10)nc78)c(C(F)F)n6)CC5)CC4)cccc23)C(=O)N1 (stereo partly drawn) [I-248] | > 200 nM | 10 to 100 nM
8 | O=C1CCC(c2cncc3c(C#CCOC4CCN(C[C@H]5CC[C@H](n6cc(NC(=O)c7cnn8ccc(N9C[C@H]%10C[C@@H]9CO%10)nc78)c(C(F)F)n6)CC5)CC4)cccc23)C(=O)N1 (stereo partly drawn) [I-249] | > 200 nM | > 200 nM
9 | O=C1CCC(c2cccc3c(C#CCN4CCN(C[C@H]5CC[C@@H](n6cc(NC(=O)c7cnn8ccc(N9C[C@H]%10C[C@@H]9CO%10)nc78)c(C(F)F)n6)CC5)CC4)cccc23)C(=O)N1 (stereo partly drawn) [I-250] | > 200 nM | 10 to 100 nM
10 | O=C1CCC(c2cncc3c(C#CCN4CCN(C[C@H]5CC[C@@H](n6cc(NC(=O)c7cnn8ccc(N9C[C@H]%10C[C@@H]9CO%10)nc78)c(C(F)F)n6)CC5)CC4)cccc23)C(=O)N1 (stereo partly drawn) [I-251] | > 200 nM | > 200 nM
11 | COc1cc2nn([C@H]3CC[C@H](CN4CCC5(CC4)CCN(c4cccc6c(C7CCC(=O)NC7=O)cccc46)CC5)CC3)cc2cc1NC(=O)c1cncc(C#N)c1 (stereo partly drawn) [I-252] | > 200 nM | 10 to 100 nM
12 | COc1cc2nn([C@H]3CC[C@H](CN4CCC5(CC4)CCN(c4cccc6c(C7CCC(=O)NC7=O)cncc46)CC5)CC3)cc2cc1NC(=O)c1cncc(C#N)c1 (stereo partly drawn) [I-253] | > 200 nM | > 200 nM
13 | COc1cc2nn([C@H]3CC[C@H](CN4CCC5(CC4)CCN(c4ccc(Cl)c(N6CCC(=O)NC6=O)c4)CC5)CC3)cc2cc1NC(=O)c1cncc(C#N)c1 [I-254] | > 200 nM | > 200 nM
14 | COc1cc2nn([C@H]3CC[C@H](CN4CCC5(CC4)CCN(c4ccc(Cl)c(C6CCC(=O)NC6=O)c4)CC5)CC3)cc2cc1NC(=O)c1cncc(C#N)c1 (stereo partly drawn) [I-255] | > 200 nM | > 200 nM
15 | O=C1CCN(c2cc(C#CCOC3CCN(C[C@H]4CC[C@H](n5cc(NC(=O)c6cnn7ccc(N8C[C@H]9C[C@@H]8CO9)nc67)c(C(F)F)n5)CC4)CC3)ccc2Cl)C(=O)N1 [I-256] | > 200 nM | > 200 nM
16 | O=C1CCC(c2cc(C#CCOC3CCN(C[C@H]4CC[C@H](n5cc(NC(=O)c6cnn7ccc(N8C[C@H]9C[C@@H]8CO9)nc67)c(C(F)F)n5)CC4)CC3)ccc2Cl)C(=O)N1 (stereo partly drawn) [I-257] | > 200 nM | > 200 nM
17 | O=C1CCN(c2cc(C#CCN3CCN(C[C@H]4CC[C@@H](n5cc(NC(=O)c6cnn7ccc(N8C[C@H]9C[C@@H]8CO9)nc67)c(C(F)F)n5)CC4)CC3)ccc2Cl)C(=O)N1 [I-258] | > 200 nM | > 200 nM
18 | O=C1CCC(c2cc(C#CCN3CCN(C[C@H]4CC[C@@H](n5cc(NC(=O)c6cnn7ccc(N8C[C@H]9C[C@@H]8CO9)nc67)c(C(F)F)n5)CC4)CC3)ccc2Cl)C(=O)N1 (stereo partly drawn) [I-259] | > 200 nM | > 200 nM
19 | Cn1c(=O)n(C2CCC(=O)NC2=O)c2cccc(C#CCOC3CCN(C[C@H]4CC[C@H](n5cc(NC(=O)c6cccc(C#N)n6)c(C(F)F)n5)CC4)CC3)c21 (stereo partly drawn) [I-260] | > 200 nM | > 200 nM
20 | Cn1c(=O)n(C2CCC(=O)NC2=O)c2cccc(C#CCN3CCN(C[C@H]4CC[C@H](n5cc(NC(=O)c6cccc(C#N)n6)c(C(F)F)n5)CC4)CC3)c21 (stereo partly drawn) [I-261] | > 200 nM | > 200 nM

Row | Compound | DC50 [1] | DC50 [2]
21 | Cn1c(=O)n(C2CCC(=O)NC2=O)c2cccc(C#CCOC3CCN(C[C@H]4CC[C@H](n5cc(NC(=O)c6cccc(C#N)n6)c(C(C)(C)O)n5)CC4)CC3)c21 (stereo partly drawn) [I-262] | > 200 nM | > 200 nM
22 | Cn1c(=O)n(C2CCC(=O)NC2=O)c2cccc(C#CCN3CCN(C[C@H]4CC[C@H](n5cc(NC(=O)c6cccc(C#N)n6)c(C(C)(C)O)n5)CC4)CC3)c21 (stereo partly drawn) [I-263] | > 200 nM | > 200 nM
23 | Cn1c(=O)n(C2CCC(=O)NC2=O)c2cccc(C#CCOC3CCN(C[C@H]4CC[C@H](n5cc(NC(=O)c6cncc(C#N)c6)c(C(F)F)n5)CC4)CC3)c21 (stereo partly drawn) [I-264] | > 200 nM | > 200 nM
24 | Cn1c(=O)n(C2CCC(=O)NC2=O)c2cccc(C#CCN3CCN(C[C@H]4CC[C@H](n5cc(NC(=O)c6cncc(C#N)c6)c(C(F)F)n5)CC4)CC3)c21 (stereo partly drawn) [I-265] | > 200 nM | > 200 nM
25 | Cn1c(=O)n(C2CCC(=O)NC2=O)c2cccc(C#CCOC3CCN(C[C@H]4CC[C@H](n5cc(NC(=O)c6cncc(C#N)c6)c(C(C)(C)O)n5)CC4)CC3)c21 (stereo partly drawn) [I-266] | > 200 nM | > 200 nM
26 | Cn1c(=O)n(C2CCC(=O)NC2=O)c2cccc(C#CCN3CCN(C[C@H]4CC[C@H](n5cc(NC(=O)c6cncc(C#N)c6)c(C(C)(C)O)n5)CC4)CC3)c21 (stereo partly drawn) [I-267] | > 200 nM | > 200 nM
27 | Cc1ccc(-c2nn([C@H]3CC[C@H](CN4CCC(OCC#Cc5cccc6c5n(C)c(=O)n6C5CCC(=O)NC5=O)CC4)CC3)cc2NC(=O)c2cncc(C#N)c2)nc1 (stereo partly drawn) [I-268] | > 200 nM | > 200 nM
28 | Cc1ccc(-c2nn([C@H]3CC[C@H](CN4CCN(CC#Cc5cccc6c5n(C)c(=O)n6C5CCC(=O)NC5=O)CC4)CC3)cc2NC(=O)c2cncc(C#N)c2)nc1 (stereo partly drawn) [I-269] | > 200 nM | > 200 nM
29 | CN(C[C@H]1CC[C@H](n2cc(CC(=O)c3cnn4ccc(N5CCC(C)(C)CC5)nc34)c(C(F)F)n2)CC1)C1CCN(c2cccc3c2n(C)c(=O)n3C2CCC(=O)NC2=O)CC1 (stereo partly drawn) [I-270] | > 200 nM | 10 to 100 nM
30 | CC1CCN(c2ccn3ncc(C(=O)Nc4cn([C@H]5CC[C@H](CN(C)C6CCN(c7cccc8c7n(C)c(=O)n8C7CCC(=O)NC7=O)CC6)CC5)nc4C(F)F)c3n2)CC1 (stereo partly drawn) [I-271] | > 200 nM | < 10 nM
31 | CN(C[C@H]1CC[C@H](n2cc(NC(=O)c3cnn4ccc(N5CCC6(CC5)CC6)nc34)c(C(F)F)n2)CC1)C1CCN(c2cccc3c2n(C)c(=O)n3C2CCC(=O)NC2=O)CC1 (stereo partly drawn) [I-272] | > 200 nM | < 10 nM
32 | CN(C[C@H]1CC[C@H](n2cc(NC(=O)c3cnn4ccc(N5CCC(F)(F)CC5)nc34)c(C(F)F)n2)CC1)C1CCN(c2cccc3c2n(C)c(=O)n3C2CCC(=O)NC2=O)CC1 (stereo partly drawn) [I-273] | > 200 nM | < 10 nM
33 | CN(C[C@H]1CC[C@H](n2cc(NC(=O)c3cnn4ccc(N5CC6(CC6)C5)nc34)c(C(F)F)n2)CC1)C1CCN(c2cccc3c2n(C)c(=O)n3C2CCC(=O)NC2=O)CC1 (stereo partly drawn) [I-274] | > 200 nM | < 10 nM
34 | CN(C[C@H]1CC[C@H](n2cc(NC(=O)c3cnn4ccc(N5CC(C)(C)C5)nc34)c(C(F)F)n2)CC1)C1CCN(c2cccc3c2n(C)c(=O)n3C2CCC(=O)NC2=O)CC1 (stereo partly drawn) [I-275] | > 200 nM | < 10 nM
35 | CN(C[C@H]1CC[C@H](n2cc(NC(=O)c3cnn4ccc(N5CC(F)(F)C5)nc34)c(C(F)F)n2)CC1)C1CCN(c2cccc3c2n(C)c(=O)n3C2CCC(=O)NC2=O)CC1 (stereo partly drawn) [I-276] | > 200 nM | < 10 nM
36 | CN(C[C@H]1CC[C@H](n2cc(NC(=O)c3cnn4ccc(N5CCC5)nc34)c(C(F)F)n2)CC1)C1CCN(c2cccc3c2n(C)c(=O)n3C2CCC(=O)NC2=O)CC1 (stereo partly drawn) [I-277] | > 200 nM | < 10 nM
37 | CN(C[C@H]1CC[C@H](n2cc(NC(=O)c3cnn4ccc(N5CCCC5)nc34)c(C(F)F)n2)CC1)C1CCN(c2cccc3c2n(C)c(=O)n3C2CCC(=O)NC2=O)CC1 (stereo partly drawn) [I-278] | > 200 nM | < 10 nM
38 | Cn1c(=O)n(C2CCC(=O)NC2=O)c2cccc(C#CCN3CCN(C[C@H]4CC[C@H](n5cc(NC(=O)c6cnn7ccc(N8C[C@H]9C[C@@H]8CO9)nc67)c(C(C)(C)O)n5)CC4)CC3)c21 (stereo partly drawn) [I-279] | > 200 nM | > 200 nM
39 | Cn1c(=O)n(C2CCC(=O)NC2=O)c2cccc(C#CCOC3CCN(C[C@H]4CC[C@H](n5cc(NC(=O)c6cnn7ccc(N8C[C@H]9C[C@@H]8CO9)nc67)c(F)n5)CC4)CC3)c21 (stereo partly drawn) [I-280] | > 200 nM | > 200 nM
